Source: PubChem BioAssay (NCI)
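Dose response: 5 concentrations. Exposure: 48 h. Format: 96-well plates. Endpoint: linear interpolation; highest concentration if not reached. At the TGI there is no net growth.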

How the values were obtained:
Experiment in all cases: NCI tumour cell line growth inhibition, 48 h
[1] = test system: HOP-62 NSCLC
[2] = test system: NCI-H460 lung
[3] = test system: CAKI-1 renal
[4] = test system: 786-0 renal
[5] = test system: UO-31 renal
[6] = test system: SNB-19 CNS
[7] = test system: SF-539 CNS
[8] = test system: IGROV1 ovarian
[9] = test system: ACHN renal
[10] = test system: OVCAR-3 ovarian
[11] = test system: MDA-MB-231 breast
[12] = test system: M14 melanoma
[13] = test system: SF-268 CNS
[14] = test system: TK-10 renal
[15] = test system: MDA-N
[16] = test system: A549 NSCLC
[17] = test system: SN12C renal
[18] = test system: HT29 colon
[19] = test system: RPMI-8226 leukemia
[20] = test system: T-47D breast

| SMILES | TGI [1] | TGI [2] | TGI [3] | TGI [4] | TGI [5] | TGI [6] | TGI [7] | TGI [8] | TGI [9] | TGI [10] | TGI [11] | TGI [12] | TGI [13] | TGI [14] | TGI [15] | TGI [16] | TGI [17] | TGI [18] | TGI [19] | TGI [20] |
| --- | --- | --- | --- | --- | --- | --- | --- | --- | --- | --- | --- | --- | --- | --- | --- | --- | --- | --- | --- | --- |
| C=C(Nc1nc2ccc(C)cc2s1)C(=O)C(CC)C(=O)C(CC)CC1C(=O)NC(=O)NC1=O (configuration not stated) | > 100 µM | > 100 µM | > 100 µM | > 100 µM | > 100 µM | > 100 µM | > 100 µM | > 100 µM | > 100 µM | > 100 µM | > 100 µM | > 100 µM | > 100 µM | > 100 µM | > 100 µM | > 100 µM | > 100 µM | – | – | – |
| CC(C)=CC1CC(=[N+]=[N-])C(=O)C1(C)C (configuration not stated) | > 100 µM | > 100 µM | > 100 µM | > 100 µM | > 100 µM | > 100 µM | > 100 µM | > 100 µM | > 100 µM | > 100 µM | – | > 100 µM | > 100 µM | > 100 µM | – | > 100 µM | > 100 µM | > 31.6 µM | > 74.6 µM | – |
| COC(=O)c1nsc(OC)c1Cl | > 100 µM | – | > 100 µM | > 100 µM | > 100 µM | > 100 µM | > 100 µM | > 100 µM | – | > 100 µM | > 100 µM | > 100 µM | > 100 µM | > 100 µM | > 100 µM | > 100 µM | > 100 µM | > 100 µM | > 100 µM | – |
| N#Cc1c(-c2ccc(Cl)cc2)c(C#N)c(=O)n(NS(=O)(=O)c2ccccc2)c1O | > 100 µM | 55 µM | 48 µM | > 100 µM | – | > 100 µM | 55.6 µM | > 100 µM | > 100 µM | – | 98.2 µM | > 100 µM | > 100 µM | > 100 µM | > 100 µM | > 100 µM | > 100 µM | > 100 µM | 26.2 µM | – |
| COc1ccc(OC)c(/C=C(/C#N)c2ccccc2)c1 | > 100 µM | > 100 µM | > 100 µM | > 100 µM | – | > 100 µM | > 100 µM | > 100 µM | > 100 µM | 88.2 µM | – | > 100 µM | > 100 µM | > 100 µM | – | > 100 µM | > 100 µM | > 100 µM | 60.6 µM | – |
| CS(=O)(=O)c1ccc(-c2cc(-c3ccc(S(C)(=O)=O)cc3)[n+](-c3cc(-c4ccccc4)c([O-])c(-c4ccccc4)c3)c(-c3ccc(S(C)(=O)=O)cc3)c2)cc1 | > 100 µM | > 100 µM | > 100 µM | > 100 µM | > 100 µM | > 100 µM | > 100 µM | > 100 µM | > 100 µM | > 100 µM | – | > 100 µM | > 100 µM | > 100 µM | – | > 100 µM | > 100 µM | > 100 µM | > 100 µM | – |
| COc1ccc(C(C#N)NNC(=O)Cc2ccccc2)cc1OC (configuration not stated) | > 100 µM | > 100 µM | > 100 µM | > 100 µM | > 100 µM | – | > 100 µM | > 100 µM | > 100 µM | – | – | > 100 µM | > 100 µM | > 100 µM | – | > 100 µM | > 100 µM | > 100 µM | > 100 µM | – |
| COC1(OC)CCCc2c1no[n+]2[O-] | > 100 µM | > 100 µM | > 100 µM | > 100 µM | > 100 µM | > 100 µM | > 100 µM | > 100 µM | > 100 µM | > 100 µM | > 100 µM | > 100 µM | > 100 µM | > 100 µM | > 100 µM | > 100 µM | > 100 µM | > 100 µM | > 100 µM | – |
| C=CN1C(=O)[C@H](Oc2ccccc2)[C@@H]1c1ccccc1 | 92.2 µM | > 100 µM | – | 33.1 µM | > 100 µM | > 100 µM | 31.1 µM | > 100 µM | > 100 µM | – | – | > 100 µM | > 100 µM | > 100 µM | – | 85 µM | > 100 µM | 69.4 µM | 57 µM | – |
| O=c1c2ncn(C3CCCO3)c2n(-c2ccccc2)c(=S)n1-c1ccccc1 (configuration not stated) | > 100 µM | > 100 µM | > 100 µM | > 100 µM | > 100 µM | – | > 100 µM | > 100 µM | > 100 µM | > 100 µM | > 100 µM | > 100 µM | > 100 µM | > 100 µM | – | > 100 µM | > 100 µM | > 100 µM | > 100 µM | > 100 µM |
| CN(CCN(C)C(=O)CCn1cc(F)c(=O)[nH]c1=O)C(=O)CCn1cc(F)c(=O)[nH]c1=O | > 100 µM | > 100 µM | – | > 100 µM | > 100 µM | > 100 µM | > 100 µM | > 100 µM | > 100 µM | > 100 µM | – | > 100 µM | > 100 µM | > 100 µM | – | > 100 µM | > 100 µM | > 100 µM | > 100 µM | – |
| CC(Oc1ccc(OCC2CCCCC2)cc1)C(=O)OCC(=O)c1ccc(-c2ccccc2)cc1 (configuration not stated) | – | > 100 µM | – | > 100 µM | > 100 µM | > 100 µM | > 100 µM | > 100 µM | > 100 µM | > 100 µM | – | > 100 µM | > 100 µM | > 100 µM | – | > 100 µM | > 100 µM | > 100 µM | – | – |
| Cc1nc2ccc(F)cc2c2c1CCN2c1ccc(Cl)cc1 | 56.4 µM | 47.7 µM | 79.6 µM | 34.9 µM | 78.3 µM | > 100 µM | 24.3 µM | 40 µM | 96.2 µM | > 100 µM | 30.6 µM | 21.4 µM | > 100 µM | 41.7 µM | 21.7 µM | > 100 µM | 97.6 µM | 22.4 µM | – | – |
| CC(C)[Si]1(C(C)C)OCC2OC3(CO)C(Oc4nc(=O)ccn43)C2O[Si](C(C)C)(C(C)C)O1 (configuration not stated) | 29.2 µM | 29.2 µM | 29.4 µM | 28.9 µM | 27.2 µM | 32.7 µM | 28.3 µM | 33 µM | 29.3 µM | – | 23.2 µM | 30.4 µM | 35.6 µM | 32.1 µM | – | – | – | 27.2 µM | 23.9 µM | 24 µM |
